The text below walks through data of patent US7332279B2 (Glycozym APS, priority 1999, dated 2008).

Structures are written as SMILES.

The target of one assay is T1, β3Gal-T5 (Homo sapiens, UniProt Q9Y2C3, M85T).
T1 construct: Full length enzymes were assayed with 1% Triton CF54 homogenates of washed cells; made in house; host or cells: Sf9 cells, baculovirus (pVL1193)
T1 sequence (Q9Y2C3 1-310 M85T): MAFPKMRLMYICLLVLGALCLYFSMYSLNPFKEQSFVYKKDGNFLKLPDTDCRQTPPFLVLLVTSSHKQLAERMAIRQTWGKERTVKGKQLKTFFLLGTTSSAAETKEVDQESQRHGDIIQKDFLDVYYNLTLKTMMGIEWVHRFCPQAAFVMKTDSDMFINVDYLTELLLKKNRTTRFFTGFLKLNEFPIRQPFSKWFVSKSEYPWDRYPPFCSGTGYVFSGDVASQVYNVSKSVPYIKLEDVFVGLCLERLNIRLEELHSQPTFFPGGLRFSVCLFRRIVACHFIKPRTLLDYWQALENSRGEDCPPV
The experiment in a line: Activity of full coding construct of β3Gal-T5 expressed in Sf9 cells (Triton CF54 homogenates or media). The conditions noted are these: 60 hrs post-infection, acceptor 20 mM. Format: biochemical. An excerpt:
PCR product was cloned into the BamHI site of pAcGP67B (Pharmingen). […] This PCR product was cloned into the BamHI site of pVL1193 (Pharmingen). Both soluble and full length constructs were fully sequenced to confirm fidelity. Plasmids […]5-full were co-transfected with Baculo-GoldTM DNA (Pharmingen) as described previously (Bennett, […]. and Clausen, H. cDNA cloning and expression of a novel human UDP-N-acetyl-alpha-D-galactosamine. Polypeptide N-acetyl-galactosaminyl-transferase, GalNAc-T3. J. Biol. Chem. 271:17006-17012, 1996). Recombinant Baculo-virus were obtained after two successive amplifications in Sf9 cells grown in serum-containing medium, and titers of virus were estimated by titration in 24-well plates with monitoring of enzyme activities. […] J. Biol. […] J. Biol. […] Polypeptide N-acetyl-galactosaminyl-transferase, GalNAc-T3. J. Biol. Chem. 271:17006-17012, 1996). For large scale expression amplified virus was used to infect High FiveTM cells grown in serum-free media (Invitrogen) in upright roller bottles shaking at 140 rpm and 27° C. The kinetic properties were determined with partially purified, secreted forms of the enzymes. […] Reaction products were quantified by Dowex-1 chromatography. […] The transfer of Gal was evaluated after acid precipitation by filtration through Whatman GF/C glass fibre filters. […]

Another assay has as its target T2, β3Gal-T1 (Homo sapiens, UniProt Q9Y5Z6).
T2 construct: Full length enzymes were assayed with 1% Triton CF54 homogenates of washed cells; made in house; host or cells: Sf9 cells, baculovirus
T2 sequence (Q9Y5Z6 1-326): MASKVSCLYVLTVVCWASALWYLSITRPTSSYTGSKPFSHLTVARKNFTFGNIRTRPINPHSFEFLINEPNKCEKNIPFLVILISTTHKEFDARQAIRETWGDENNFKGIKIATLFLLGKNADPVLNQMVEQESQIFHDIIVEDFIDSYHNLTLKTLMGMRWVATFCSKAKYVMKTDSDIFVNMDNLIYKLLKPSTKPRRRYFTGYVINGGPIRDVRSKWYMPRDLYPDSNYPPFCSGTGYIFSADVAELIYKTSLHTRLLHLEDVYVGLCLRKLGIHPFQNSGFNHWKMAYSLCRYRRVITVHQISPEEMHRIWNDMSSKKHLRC
The experiment in a line: Activity of full coding construct of β3Gal-T1 expressed in Sf9 cells (Triton CF54 homogenates or media). It counts as biochemical. The conditions noted are these: 60 hrs post-infection, acceptor 20 mM.

In assay [1] the test system is porcine tracheal β3Gal-transferase activity. The conditions noted are these: acceptor substrate; read-out: apparent Km, porcine β3Gal-transferase activity; cited from earlier work.

Take `CC(=O)N[C@H]1[C@H](OCc2ccccc2)O[C@H](CO)[C@@H](O)[C@@H]1O` [β-D-GlcNAc-Bzl]: at β3Gal-T5 (1% Triton CF54 cell homogenate), the “β3Gal-T5 full coding construct activity, Cells” value worked out at 1.5 nmol/min/mL. At β3Gal-T5 (media), the “β3Gal-T5 full coding construct activity, Media” value is 0.1 nmol/min/mL. In addition, the “β3Gal-T1 full coding construct activity, Cells” value on β3Gal-T1 (1% Triton CF54 cell homogenate) came out at 7.2 nmol/min/mL. The “β3Gal-T1 full coding construct activity, Media” value on β3Gal-T1 (media) stood at 0.2 nmol/min/mL.
What is called Km is the concentration of substrate that gives half-maximal velocity. Turning to `CC(=O)NC1C(OC2C(O)C(CO)OC(Oc3ccc([N+](=O)[O-])cc3)C2NC(C)=O)OC(CO)C(O)C1O` [β-D-GlcNAc-(1–3)-α-D-GalNAc-p-Nph], the Michaelis constant (Km) in assay [1] was 2400 µM.
